Laboratory results published in patent publication US5696151A, “Compounds useful for the inhibition of the replication of HIV-1 and HIV-1 mutants” (priority 1995, dated 1997).
Converted amounts (≈) assume the structure as drawn. Read-outs that look alike come from different tables or passages of the source.

Legend:
Format in all cases: cell-based
HIV-1/Lys-138 = assay: Inhibition of HIV-1 induced syncytium formation in CEM cells, RT mutant 138-Lys; details: Human immunodeficiency virus 1, CCRF-CEM, 96 h
Excerpt: (§1) CEM cells were obtained from the American Tissue Cell Culture Collection (Rockville, Md.). HIV-1(IIIB) was originally obtained from the culture supernatant of persistently HIV-1-infected H9 cells and was provided by R. C. Gallo and M. Popovic (National Cancer Institute, National Institutes of Health, Bethesda, Md.). […] 67: 5353-5359 (1993); HIV-1/Lys-138 ("Lys-138") was selected for resistance against TSAO-m^3T as described in Balzarini et al, Virology 192: 246-253 (1993) and Balzarini et al, Proc. Nat. Acad. Sci. USA 90: 6952-6956 (1993); HIV-1/181-Cys ("181-Cys") was selected for resistance against pyridinone L-697,661 as described in Balzarini et al, Virology 192: 246-253 (1993); and HIV-1/188-His ("188-His") was selected for resistance against HEPT as described in Balzarini et al, Mol. Pharmocol. 44: 694-701 (1993). 188-His was then further converted to HIV-1/188-Leu "188-Leu") upon further passage in cell culture in the absence of the HEPT.
(§2) CEM cells were suspended at ≈300,000 cells per ml of culture medium and infected with approximately 100 CCID50 (CCID50 being the 50% cell culture infective dose) of HIV-1(IIIB) or one of the HIV-1 RT mutant strains described above. Then 100 μl of the infected cell suspensions was added to 200 μl microtiter plate wells containing 100 μl of appropriate serial (5-fold) dilutions of the test compounds. The inhibitory effect of the test compounds on HIV-1 induced syncytium formation in CEM cells was examined microscopically on day 4 post infection.

HIV-1/181-Cys = assay: Inhibition of HIV-1 induced syncytium formation in CEM cells, RT mutant 181-Cys; details: Human immunodeficiency virus 1, CCRF-CEM, 96 h
Excerpt: as §1, §2

HIV-1/106-Ala = assay: Inhibition of HIV-1 induced syncytium formation in CEM cells, RT mutant 106-Ala; details: Human immunodeficiency virus 1, CCRF-CEM, 96 h
Excerpt: as §1, §2

in vitro = details: human, cem cells, CC50 (50% cytostatic concentration), Table 2B; CEM cell proliferation; averages of 2 to 3 independent experiments
Excerpt: as §1
^b 50% cytostatic concentration (i.e., compound concentration require
to inhibit CEM cell proliferation by 50%)

HIV-1/100-Ile = assay: Inhibition of HIV-1 induced syncytium formation in CEM cells, RT mutant 100-Ile; details: Human immunodeficiency virus 1, CCRF-CEM, 96 h
Excerpt: as §1, §2

HIV-1(IIIB) = assay: Inhibition of HIV-1 induced syncytium formation in CEM cells, wild type; details: Human immunodeficiency virus 1, IIIB, CCRF-CEM, 96 h, Table 2B, WT = HIV-1(IIIB), day 4, averages of 2 to 3 independent experiments, read-out: Antiviral Activity of Comparative Compounds EC50, WT
Excerpt: as §1, §2

[1] = Table 2B, day 4, averages of 2 to 3 independent experiments, read-out: Antiviral Activity of Comparative Compounds EC50, 138-Lys
[2] = Table 2B, day 4, averages of 2 to 3 independent experiments, read-out: Antiviral Activity of Comparative Compounds EC50, 181-Cys
[3] = Table 2B, day 4, averages of 2 to 3 independent experiments, read-out: Antiviral Activity of Comparative Compounds EC50, 106-Ala
[4] = Table 2B, day 4, averages of 2 to 3 independent experiments, read-out: Antiviral Activity of Comparative Compounds EC50, 100-Ile

COc1ccc(NC(=O)c2ccoc2C)cc1CC(=O)OC(C)C [Compound 56]
EC50 (HIV-1/Lys-138; [1]): ≥ 10 µg/mL
EC50 (HIV-1/181-Cys; [2]): > 10 µg/mL
EC50 (HIV-1/106-Ala; [3]): 6.5 µg/mL (≈ 19.6 µM)
CC50 (in vitro): 52 µg/mL (≈ 157 µM)
EC50 (HIV-1/100-Ile; [4]): > 10 µg/mL
EC50 (HIV-1(IIIB)): 0.7 µg/mL (≈ 2.11 µM)

C=CCOc1cc(NC(=S)c2sccc2C)ccc1Cl [Compound 76]
EC50 (HIV-1/Lys-138; [1]): 0.73 µg/mL (≈ 2.25 µM)
EC50 (HIV-1/181-Cys; [2]): > 1 µg/mL
EC50 (HIV-1/106-Ala; [3]): ≥ 1 µg/mL
CC50 (in vitro): 5.3 µg/mL (≈ 16.4 µM)
EC50 (HIV-1/100-Ile; [4]): 2.7 µg/mL (≈ 8.34 µM)
EC50 (HIV-1(IIIB)): 0.035 µg/mL (≈ 0.108 µM)

Cc1occc1C(=S)Nc1ccc(Cl)c(C(=O)OC(C)C2CC2)c1 (stereo not drawn) [Compound 55]
EC50 (HIV-1/Lys-138; [1]): 0.18 µg/mL (≈ 0.495 µM)
EC50 (HIV-1/181-Cys; [2]): 0.11 µg/mL (≈ 0.302 µM)
EC50 (HIV-1/106-Ala; [3]): 0.08 µg/mL (≈ 0.22 µM)
CC50 (in vitro): 17 µg/mL (≈ 46.7 µM)
EC50 (HIV-1/100-Ile; [4]): 0.65 µg/mL (≈ 1.79 µM)
EC50 (HIV-1(IIIB)): 0.009 µg/mL (≈ 0.0247 µM)

C=CC(C)(C)OC(=O)c1cc(NC(=S)c2ccoc2C)ccc1Cl [Compound 110]
EC50 (HIV-1/Lys-138; [1]): 0.1 µg/mL (≈ 0.275 µM)
EC50 (HIV-1/181-Cys; [2]): 0.5 µg/mL (≈ 1.37 µM)
EC50 (HIV-1/106-Ala; [3]): 0.2 µg/mL (≈ 0.55 µM)
CC50 (in vitro): 25 µg/mL (≈ 68.7 µM)
EC50 (HIV-1/100-Ile; [4]): 4 µg/mL (≈ 11 µM)
EC50 (HIV-1(IIIB)): 0.04 µg/mL (≈ 0.11 µM)

Cc1occc1C(=S)Nc1ccc(Cl)c(C(=O)OCC(C)C)c1 [Compound 103]
EC50 (HIV-1/Lys-138; [1]): 0.06 µg/mL (≈ 0.171 µM)
EC50 (HIV-1/181-Cys; [2]): 0.07 µg/mL (≈ 0.199 µM)
EC50 (HIV-1/106-Ala; [3]): 0.075 µg/mL (≈ 0.213 µM)
CC50 (in vitro): 8.5 µg/mL (≈ 24.2 µM)
EC50 (HIV-1/100-Ile; [4]): 0.19 µg/mL (≈ 0.54 µM)
EC50 (HIV-1(IIIB)): 0.01 µg/mL (≈ 0.0284 µM)

CC(C)C(OC(=O)c1cc(NC(=S)c2ccc[nH]2)ccc1Cl)C(C)C [Compound 99]
EC50 (HIV-1/Lys-138; read-out: Antiviral Activity of Comparative Compounds EC50, 138-Lys, Table 2B, day 4, averages of 2 to 3 independent experiments): > 10 µg/mL
EC50 (HIV-1/181-Cys; read-out: Antiviral Activity of Comparative Compounds EC50, 181-Cys, Table 2B, day 4, averages of 2 to 3 independent experiments): > 10 µg/mL
EC50 (HIV-1/106-Ala; read-out: Antiviral Activity of Comparative Compounds EC50, 106-Ala, Table 2B, day 4, averages of 2 to 3 independent experiments): > 10 µg/mL
CC50 (in vitro): > 100 µg/mL
EC50 (HIV-1/100-Ile; read-out: Antiviral Activity of Comparative Compounds EC50, 100-Ile, Table 2B, day 4, averages of 2 to 3 independent experiments): > 1 µg/mL
EC50 (HIV-1(IIIB)): 0.1 µg/mL (≈ 0.264 µM)

CC(C)OC(=O)c1cc(NC(=S)c2ccccc2)ccc1Cl [Compound 63]
EC50 (HIV-1/Lys-138; [1]): 2.2 µg/mL (≈ 6.59 µM)
EC50 (HIV-1/181-Cys; [2]): 5 µg/mL (≈ 15 µM)
EC50 (HIV-1/106-Ala; [3]): 5 µg/mL (≈ 15 µM)
CC50 (in vitro): 4.3 µg/mL (≈ 12.9 µM)
EC50 (HIV-1/100-Ile; [4]): 4.5 µg/mL (≈ 13.5 µM)
EC50 (HIV-1(IIIB)): 0.05 µg/mL (≈ 0.15 µM)

C=C(C)COC(=O)c1cc(NC(=O)c2ccoc2C)ccc1Cl [Compound 50]
EC50 (HIV-1/Lys-138; [1]): 1 µg/mL (≈ 3 µM)
EC50 (HIV-1/181-Cys; [2]): 1.9 µg/mL (≈ 5.69 µM)
EC50 (HIV-1/106-Ala; [3]): 1 µg/mL (≈ 3 µM)
CC50 (in vitro): 3.7 µg/mL (≈ 11.1 µM)
EC50 (HIV-1/100-Ile; [4]): 5 µg/mL (≈ 15 µM)
EC50 (HIV-1(IIIB)): 0.15 µg/mL (≈ 0.449 µM)

CCC(CC)OC(=O)c1cc(NC(=S)c2ccccc2N)ccc1Cl [Compound 67]
EC50 (HIV-1/Lys-138; [1]): 5.5 µg/mL (≈ 14.6 µM)
EC50 (HIV-1/181-Cys; [2]): > 10 µg/mL
EC50 (HIV-1/106-Ala; [3]): ≥ 10 µg/mL
CC50 (in vitro): 29 µg/mL (≈ 76.9 µM)
EC50 (HIV-1/100-Ile; [4]): ≥ 10 µg/mL
EC50 (HIV-1(IIIB)): 0.75 µg/mL (≈ 1.99 µM)

Cc1ccoc1C(=S)Nc1ccc(Cl)c(C=NOC(C)C)c1 [Compound 94]
EC50 (HIV-1/Lys-138; [1]): 0.15 µg/mL (≈ 0.445 µM)
EC50 (HIV-1/181-Cys; [2]): 0.6 µg/mL (≈ 1.78 µM)
EC50 (HIV-1/106-Ala; [3]): 0.5 µg/mL (≈ 1.48 µM)
CC50 (in vitro): 3.1 µg/mL (≈ 9.2 µM)
EC50 (HIV-1/100-Ile; [4]): 0.75 µg/mL (≈ 2.23 µM)
EC50 (HIV-1(IIIB)): 0.01 µg/mL (≈ 0.0297 µM)

Cc1ccccc1C(=O)Nc1ccc(Cl)c(C(=O)OC2CCCCC2)c1 [Compound 70]
EC50 (HIV-1/Lys-138; [1]): 5.5 µg/mL (≈ 14.8 µM)
EC50 (HIV-1/181-Cys; [2]): 2.5 µg/mL (≈ 6.72 µM)
EC50 (HIV-1/106-Ala; [3]): 6.5 µg/mL (≈ 17.5 µM)
CC50 (in vitro): 5.2 µg/mL (≈ 14 µM)
EC50 (HIV-1/100-Ile; [4]): 2.5 µg/mL (≈ 6.72 µM)
EC50 (HIV-1(IIIB)): 0.19 µg/mL (≈ 0.511 µM)

C=CCOC(=O)c1cc(NC(=S)c2ccoc2C)ccc1Cl [Compound 104]
EC50 (HIV-1/Lys-138; [1]): 0.2 µg/mL (≈ 0.596 µM)
EC50 (HIV-1/181-Cys; [2]): 0.37 µg/mL (≈ 1.1 µM)
EC50 (HIV-1/106-Ala; [3]): 0.4 µg/mL (≈ 1.19 µM)
CC50 (in vitro): 11 µg/mL (≈ 32.8 µM)
EC50 (HIV-1/100-Ile; [4]): 0.65 µg/mL (≈ 1.94 µM)
EC50 (HIV-1(IIIB)): 0.01 µg/mL (≈ 0.0298 µM)

Cc1sccc1C(=O)Nc1ccc(Cl)c(C=NOC(C)(C)C)c1 [Compound 60]
EC50 (HIV-1/Lys-138; [1]): 1.57 µg/mL (≈ 4.47 µM)
EC50 (HIV-1/181-Cys; [2]): 3 µg/mL (≈ 8.55 µM)
EC50 (HIV-1/106-Ala; [3]): 1.6 µg/mL (≈ 4.56 µM)
CC50 (in vitro): 14 µg/mL (≈ 39.9 µM)
EC50 (HIV-1/100-Ile; [4]): 4.5 µg/mL (≈ 12.8 µM)
EC50 (HIV-1(IIIB)): 0.23 µg/mL (≈ 0.656 µM)

C#CCON=Cc1cc(NC(=S)c2ccoc2C)ccc1Cl [Compound 112]
EC50 (HIV-1/Lys-138; [1]): 0.5 µg/mL (≈ 1.5 µM)
EC50 (HIV-1/181-Cys; [2]): 0.8 µg/mL (≈ 2.4 µM)
EC50 (HIV-1/106-Ala; [3]): 0.35 µg/mL (≈ 1.05 µM)
CC50 (in vitro): 10 µg/mL (≈ 30 µM)
EC50 (HIV-1/100-Ile; [4]): 0.75 µg/mL (≈ 2.25 µM)
EC50 (HIV-1(IIIB)): 0.025 µg/mL (≈ 0.0751 µM)

CC(C)OC(=O)c1cc(NC(=S)c2ccsc2)ccc1Cl [Compound 92]
EC50 (HIV-1/Lys-138; [1]): 0.5 µg/mL (≈ 1.47 µM)
EC50 (HIV-1/181-Cys; [2]): 0.37 µg/mL (≈ 1.09 µM)
EC50 (HIV-1/106-Ala; [3]): 0.75 µg/mL (≈ 2.21 µM)
CC50 (in vitro): 4.3 µg/mL (≈ 12.7 µM)
EC50 (HIV-1/100-Ile; [4]): 0.4 µg/mL (≈ 1.18 µM)
EC50 (HIV-1(IIIB)): 0.02 µg/mL (≈ 0.0588 µM)

C#CCOc1cc(NC(=S)c2ccoc2C)ccc1Cl [Compound 117]
EC50 (HIV-1/Lys-138; [1]): 0.35 µg/mL (≈ 1.14 µM)
EC50 (HIV-1/181-Cys; [2]): 4 µg/mL (≈ 13.1 µM)
EC50 (HIV-1/106-Ala; [3]): 0.75 µg/mL (≈ 2.45 µM)
CC50 (in vitro): 18 µg/mL (≈ 58.9 µM)
EC50 (HIV-1/100-Ile; [4]): 5 µg/mL (≈ 16.4 µM)
EC50 (HIV-1(IIIB)): 0.06 µg/mL (≈ 0.196 µM)
